Measured values taken from patent US11008335B2, “Positive allosteric modulators of the muscarinic acetylcholine receptor M4” (Vanderbilt University, priority 2016, dated 2021).
Where a name gives a salt, the structure may show the parent alone.

Biological target: T1, Human M4 (Homo sapiens, UniProt P08173)
T1 sequence (P08173 1-479): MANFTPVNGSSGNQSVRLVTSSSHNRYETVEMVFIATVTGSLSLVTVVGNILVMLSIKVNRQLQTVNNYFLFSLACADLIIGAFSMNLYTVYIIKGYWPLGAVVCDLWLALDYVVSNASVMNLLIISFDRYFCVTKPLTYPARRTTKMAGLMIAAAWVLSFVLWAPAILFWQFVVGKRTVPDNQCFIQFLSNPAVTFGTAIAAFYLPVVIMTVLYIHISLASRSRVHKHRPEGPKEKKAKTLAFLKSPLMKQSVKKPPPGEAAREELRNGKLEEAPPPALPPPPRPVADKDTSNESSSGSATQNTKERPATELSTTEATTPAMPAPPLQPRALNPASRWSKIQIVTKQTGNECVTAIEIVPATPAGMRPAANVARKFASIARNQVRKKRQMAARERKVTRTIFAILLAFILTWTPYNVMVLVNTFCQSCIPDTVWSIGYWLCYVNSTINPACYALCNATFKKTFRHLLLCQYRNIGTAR
Assay: mAChR M4 cell-based functional assay (calcium flux, potentiation of EC20 acetylcholine response)
Set-up: Emax: dose or concentration left out as unconfirmed
Details: for Emax: CHO-K1

SMILES	EC50 [nM]	Emax [%]
Cc1nc2sc3c(NC4CC4)nncc3c2c(C)c1Cl [Compound 11, 3-chloro-N-cyclopropyl-2,4-dimethylpyrido[3′,2′:4,5]thieno[2,3-d]pyridazin-8-amine hydrochloride]	81	100
Cc1nc2sc3c(N4CCCC4)nnc(C)c3c2c(C)c1Cl [Compound 21, 3-Chloro-2,4,5-trimethyl-8-(pyrrolidin-1-yl)pyrido[3′,2′:4,5]thieno[2,3-d]pyridazine]	1630	50.4
COc1ccc(CNc2nncc3c2sc2nc(C)c(Cl)c(C)c23)cc1F [Compound 5, 3-chloro-N-(3-fluoro-4-methoxybenzyl)-2,4-dimethylpyrido[3′,2′:4,5]thieno[2,3-d]pyridazin-8-amine]	1310	69.4
[2H]C([2H])(Nc1nncc2c1sc1nnc(C)c(C)c12)c1ccc(C(C)(C)O)cc1 [Compound 13, 2-(4-(((3,4-dimethylthieno[2,3-c:4,5-d′]dipyridazin-8-yl)amino)methyl-d2)phenyl)propan-2-ol]	727	91.9
Cc1nnc2sc3c(NCc4ccc(-n5cccn5)cc4)nncc3c2c1C [Compound 18, N-(4-(1H-pyrazol-1-yl)benzyl)-3,4-dimethylthieno[2,3-c:4,5-d′]dipyridazin-8-amine]	560	72.7
Cc1nnc2sc3c(NCc4ccc(C(C)(C)CO)cc4F)nncc3c2c1C [Compound 16, 2-(4-(((3,4-dimethylthieno[2,3-c:4,5-d′]dipyridazin-8-yl)amino)methyl)-3-fluorophenyl)-2-methylpropan-1-ol]	779	77.4
Cc1nc2sc3c(N4CC5CC5C4)nncc3c2c(C)c1Cl (stereo not drawn) [Compound 3, 8-(3-azabicyclo[3.1.0]hexan-3-yl)-3-chloro-2,4-dimethylpyrido[3′,2′:4,5]thieno[2,3-d]pyridazine]	480	80.4
COc1ccc(CNc2nncc3c2sc2nnc(C)c(C)c23)cc1F [Compound 17, N-(3-fluoro-4-methoxybenzyl)-3,4-dimethylthieno[2,3-c:4,5-d′]dipyridazin-8-amine]		86.7
Cc1nnc2sc3c(N4CC(Oc5cccnc5)C4)nncc3c2c1C [Compound 19, 3,4-dimethyl-8-(3-(pyridin-3-yloxy)azetidin-1-yl)thieno[2,3-c:4,5-d′]dipyridazine]	2110	51.3
Cc1nnc2sc3c(NCc4ccc(C(C)(C)O)cc4)nncc3c2c1C [Compound 12, 2-(4-(((3,4-dimethylthieno[2,3-c:4,5-d′]dipyridazin-8-yl)amino)methyl)phenyl)propan-2-ol]		99.4
Cc1nnc2sc3c(N4CCCC4)nncc3c2c1C [Compound 15, 3,4-dimethyl-8-(pyrrolidin-1-yl)thieno[2,3-c:4,5-d′]dipyridazine]		95.8
Cc1nnc2sc3c(N4CC[C@H](Oc5cccnc5)C4)nncc3c2c1C [Compound 20, (S)-3,4-dimethyl-8-(3-(pyridin-3-yloxy)pyrrolidin-1-yl)thieno[2,3-c:4,5-d′]pyridazine]	214	70.3
COCCCNc1nncc2c1sc1nc(C)c(Cl)c(C)c12 [Compound 7, 3-chloro-N-(3-methoxypropyl)-2,4-dimethylpyrido[3′,2′:4,5]thieno[2,3-d]pyridazin-8-amine hydrochloride]	340	70
[2H]C([2H])([2H])C(O)(c1ccc(CNc2nncc3c2sc2nnc(C)c(C)c23)cc1)C([2H])([2H])[2H] [Compound 14, 2-(4-(((3,4-dimethylthieno[2,3-c:4,5-d′]dipyridazin-8-yl)amino)methyl)phenyl)propan-1,1,1,3,3,3-d6-2-ol]	746	89.4
Cc1nc2sc3c(NCc4ccc(OC(F)F)cc4)nncc3c2c(C)c1Cl [Compound 4, 3-chloro-N-(4-(difluoromethoxy)benzyl)-2,4-dimethylpyrido[3′,2′:4,5]thieno[2,3-d]pyridazin-8-amine]	540	41
